Results reported in the supplement of paper PMC10307832.

Tests used:
Test in all cases: relative viability (nuclei count vs DMSO), 5 days (fraction); higher = more cells survive
[1] = compound: C1CN(CCC1C(C2=CC3=C(C=C2)OCO3)(C4=CC5=C(C=C4)OCO5)O)C(=O)OC6=CC=C(C=C6)[N+](=O)[O-] [JZL-184] + O=C(CCCCCCC(=O)Nc1ccccc1)NO [Vorinostat] (partner 1 µM)
Summary of the method: (§1)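 Medians of duplicate plates are given as relative viability. That measure is the nuclei count in treated wells divided by the count in vehicle wells. Counts were taken on 4× images of lung cancer cell lines in 1536-well plates, 5 days after pin-tool dosing the day after seeding with one drug alone or a fixed anchor-drug dose plus five library-drug doses (not always all listed) in √10 steps.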

[2] = compound: C1CN(CCC1C(C2=CC3=C(C=C2)OCO3)(C4=CC5=C(C=C4)OCO5)O)C(=O)OC6=CC=C(C=C6)[N+](=O)[O-] [JZL-184] + CS(=O)(=O)N1CCN(Cc2cc3nc(-c4cccc5[nH]ncc45)nc(N4CCOCC4)c3s2)CC1 [Pictilisib] (partner 1 µM)
Summary of the method: as §1

[3] = compound: C1CN(CCC1C(C2=CC3=C(C=C2)OCO3)(C4=CC5=C(C=C4)OCO5)O)C(=O)OC6=CC=C(C=C6)[N+](=O)[O-] [JZL-184] + Cc1cc(Nc2cc(N3CCN(C)CC3)nc(Sc3ccc(NC(=O)C4CC4)cc3)n2)n[nH]1 [Tozasertib] (partner 0.1 µM)
Summary of the method: as §1

[4] = compound: C1CN(CCC1C(C2=CC3=C(C=C2)OCO3)(C4=CC5=C(C=C4)OCO5)O)C(=O)OC6=CC=C(C=C6)[N+](=O)[O-] [JZL-184] + Cc1nc(NC(=O)N2CCC[C@H]2C(N)=O)sc1-c1ccnc(C(C)(C)C(F)(F)F)c1 [Alpelisib] (partner 2 µM)
Summary of the method: as §1

[5] = compound: C1CN(CCC1C(C2=CC3=C(C=C2)OCO3)(C4=CC5=C(C=C4)OCO5)O)C(=O)OC6=CC=C(C=C6)[N+](=O)[O-] [JZL-184] + N=C(N)NC(=N)NCCc1ccccc1 [Phenformin] (partner 250 µM)
Summary of the method: as §1

Cell Line | relative viability ([1]; first compound 0.04 µM) | relative viability ([1]; first compound 0.4 µM) | relative viability ([1]; first compound 1.265 µM) | relative viability ([1]; first compound 4 µM) | relative viability ([2]; first compound 0.04 µM) | relative viability ([2]; first compound 0.4 µM) | relative viability ([2]; first compound 1.265 µM) | relative viability ([2]; first compound 4 µM) | relative viability ([3]; first compound 0.04 µM) | relative viability ([3]; first compound 0.4 µM) | relative viability ([3]; first compound 1.265 µM) | relative viability ([3]; first compound 4 µM) | relative viability ([4]; first compound 0.04 µM) | relative viability ([4]; first compound 0.4 µM) | relative viability ([4]; first compound 1.265 µM) | relative viability ([4]; first compound 4 µM) | relative viability ([5]; first compound 0.04 µM) | relative viability ([5]; first compound 0.4 µM) | relative viability ([5]; first compound 1.265 µM) | relative viability ([5]; first compound 4 µM)
201T | 0.995 | 0.983 | 1.01 | 0.902 | 0.743 | 0.67 | 0.727 | 0.649 | 1.02 | 0.981 | 0.988 | 0.862 | 0.991 | 1.05 | 1.04 | 0.997 | 0.451 | 0.44 | 0.465 | 0.45
A-427 | 0.871 | 0.829 | 0.83 | 0.754 | 0.797 | 0.639 | 0.852 | 0.697 | 0.194 | 0.186 | 0.264 | 0.239 | 1.08 | 1.06 | 1.1 | 0.979 | 0.308 | 0.327 | 0.441 | 0.306
ABC-1 | 1.59 | 0.961 | 1.42 | 0.929 | 0.946 | 0.71 | 0.898 | 0.625 | 0.195 | 0.202 | 0.174 | 0.164 | 1.1 | 0.996 | 1.06 | 0.952 | 0.225 | 0.224 | 0.301 | 0.247
BEN | 0.538 | 0.524 | 0.538 | 0.594 | 0.661 | 0.515 | 0.637 | 0.54 | 0.513 | 0.536 | 0.506 | 0.456 | 1.18 | 0.998 | 1.12 | 1.03 | 0.245 | 0.235 | 0.271 | 0.279
CAL-12T | 0.86 | 0.805 | 0.88 | 0.717 | 0.415 | 0.263 | 0.686 | 0.422 | 0.336 | 0.269 | 0.336 | 0.228 | 1.5 | 1.39 | 1.08 | 1.17 | 0.751 | 0.26 | 0.626 | 0.539
COR-L23 | 0.649 | 0.472 | 0.477 | 0.459 | 0.945 | 0.775 | 0.842 | 0.757 | 0.197 | 0.181 | 0.215 | 0.143 | 1.02 | 0.672 | 0.704 | 0.708 | 0.552 | 0.401 | 0.438 | 0.429
COR-L 105 | 0.789 | 0.8 | 0.905 | 0.82 | 0.448 | 0.41 | 0.368 | 0.37 | 0.381 | 0.398 | 0.381 | 0.319 | 0.998 | 1.2 | 0.837 | 0.916 | 0.595 | 0.497 | 0.548 | 0.436
ChaGo-K-1 | 0.79 | 0.726 | 0.751 | 0.679 | 1.03 | 0.585 | 1.04 | 0.741 | 0.265 | 0.224 | 0.211 | 0.235 | – | – | – | – | 0.616 | 0.449 | 0.467 | 0.44
EKVX | 0.676 | 0.666 | 0.719 | 0.58 | 0.501 | 0.407 | 0.446 | 0.432 | 0.39 | 0.408 | 0.423 | 0.351 | 0.679 | 0.84 | 0.875 | 0.886 | 0.236 | 0.243 | 0.244 | 0.238
EMC-BAC-2 | 0.522 | 0.451 | 0.761 | 0.371 | 0.59 | 0.559 | 0.565 | 0.488 | 0.296 | 0.282 | 0.285 | 0.287 | 0.794 | 0.733 | 0.776 | 0.729 | 0.609 | 0.476 | 0.568 | 0.456
EPLC-272H | 0.509 | 0.536 | 0.402 | 0.53 | 0.317 | 0.271 | 0.38 | 0.314 | 0.59 | 0.277 | 0.31 | 0.198 | 0.953 | 0.817 | 1.01 | 0.966 | 0.303 | 0.293 | 0.351 | 0.34
H3255 | 0.849 | 0.819 | 0.857 | 0.722 | 0.524 | 0.454 | 0.526 | 0.49 | 0.613 | 0.65 | 0.747 | 0.623 | 0.794 | 0.725 | 0.714 | 0.577 | 0.321 | 0.323 | 0.336 | 0.422
HARA | 0.608 | 0.557 | 0.681 | 0.395 | 0.356 | 0.363 | 0.424 | 0.577 | 0.134 | 0.0806 | 0.107 | 0.108 | 0.941 | 0.824 | 0.853 | 0.845 | 0.376 | 0.39 | 0.481 | 0.407
HCC-15 | 0.918 | 0.796 | 0.919 | 0.773 | 0.957 | 0.664 | 0.814 | 0.697 | 0.521 | 0.415 | 0.407 | 0.331 | 0.933 | 0.899 | 0.877 | 0.931 | 0.548 | 0.467 | 0.485 | 0.454
